Twelve molecules from ChEMBL document CHEMBL1201862, “PubChem BioAssay data set” (2004) can be followed below.

Structures are written as SMILES.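 Dose response: 5 concentrations. Exposure: 48 h. Format: 96-well plates. Endpoint: linear interpolation; highest concentration if not reached. GI50 = concentration required for 50% inhibition of growth.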 Activity calls are given as the source filed them. Rule as the data show it: active = GI50 up to about 1.1 µM and inactive = higher. Some results are limits rather than exact numbers.

Among the test systems are EKVX; NCI-H226; LOX IMVI; CCRF-CEM; OVCAR-8; HCT-116; UACC-257; NCI-H23; SF-295; IGROV-1; HOP-92; SNB-19; OVCAR-5; SK-MEL-28; A549; HCC 2998; CAKI-1; ACHN; TK-10.
Common to all, as to experiment: NCI-60 cell line screen, 48 h

With `O=C1CSc2sc(=S)sc2S1`, the GI50 is > 100 µM (inactive) with EKVX; > 100 µM (inactive) in the assay on NCI-H226; 61.1 µM (inactive) in the assay on LOX IMVI; > 76.4 µM (inactive) in the assay on CCRF-CEM; > 100 µM (inactive) in the assay with OVCAR-8; > 100 µM (inactive) in the assay with HCT-116. For the same molecule, the GI50 with UACC-257 was > 100 µM (inactive); with NCI-H23 it was > 100 µM (inactive); in the assay with SF-295, > 24.5 µM (inactive); with IGROV-1 it was > 100 µM (inactive); with HOP-92, > 100 µM (inactive); with SNB-19, > 100 µM (inactive). Besides, the GI50 in the assay with OVCAR-5 was > 100 µM (inactive); in the assay with SK-MEL-28, > 100 µM (inactive); in the assay with A549, 50.8 µM (inactive); in the assay on HCC 2998, > 80.2 µM (inactive).

`CC(=O)OCC1=C(COC(C)=O)C(=O)c2c(O)ccc(O)c2C1=O`: the GI50 in the assay with EKVX is 15.1 µM (inactive); in the assay on NCI-H226, 15.8 µM (inactive); in the assay with CCRF-CEM it was 2.45 µM (inactive); with OVCAR-8 it was 10.2 µM (inactive); in the assay with HCT-116, 12.1 µM (inactive); in the assay with CAKI-1, 5.66 µM (inactive). For the same molecule, the GI50 with UACC-257 was 5.14 µM (inactive); with NCI-H23, 12.1 µM (inactive); with ACHN, 10.2 µM (inactive); in the assay on SF-295, 13.4 µM (inactive); with TK-10, 16.3 µM (inactive); in the assay on IGROV-1, 16 µM (inactive). In addition, the GI50 is 2.54 µM (inactive) with HOP-92; 16.4 µM (inactive) in the assay with OVCAR-5; 4.9 µM (inactive) in the assay with SK-MEL-28; 17.4 µM (inactive) in the assay with A549; 15.9 µM (inactive) in the assay with HCC 2998.

For `O=C(Nc1nc2ncn(CCNCc3ccccc3)c2c(=O)[nH]1)c1ccccc1`, the GI50 in the assay on EKVX, in the assay with NCI-H226, with LOX IMVI, with CCRF-CEM, with OVCAR-8 and in the assay on HCT-116 was > 100 µM (inactive) in each case. Moreover, the GI50 in the assay with CAKI-1, with UACC-257, in the assay with ACHN, in the assay on SF-295, in the assay on TK-10 and with IGROV-1 was > 100 µM (inactive) in each case. For the same molecule, the GI50 in the assay on HOP-92, in the assay with OVCAR-5, with SK-MEL-28, in the assay with A549 and in the assay on HCC 2998 was > 100 µM (inactive) each time.

With `S=c1sc2cscc2s1`, the GI50 with EKVX is 19.5 µM (inactive); with NCI-H226, 15.5 µM (inactive); in the assay with LOX IMVI, 39.8 µM (inactive); in the assay with CCRF-CEM, 22 µM (inactive); with OVCAR-8, 21.7 µM (inactive); in the assay with HCT-116 it was 19.5 µM (inactive). The GI50 in the assay on CAKI-1 is 16.8 µM (inactive); with UACC-257 it was 22.3 µM (inactive); in the assay with NCI-H23, 28.8 µM (inactive); with ACHN, 19.4 µM (inactive); in the assay on SF-295, 54.1 µM (inactive); in the assay on TK-10 it was 23 µM (inactive). Further, the GI50 in the assay with IGROV-1 was 32.2 µM (inactive); with HOP-92 it was 24.8 µM (inactive); in the assay with SNB-19, 21.3 µM (inactive); in the assay on OVCAR-5, 69.2 µM (inactive); in the assay on SK-MEL-28, 21.9 µM (inactive); with A549, 19.5 µM (inactive). The GI50 with HCC 2998 was 18.7 µM (inactive).

Take `O=C1Nc2ccccc2Nc2ccncc21`: the GI50 with EKVX, with NCI-H226, in the assay with LOX IMVI, in the assay with CCRF-CEM, in the assay on OVCAR-8 and with HCT-116 was > 100 µM (inactive) each time. For the same molecule, the GI50 with CAKI-1, in the assay on UACC-257, with NCI-H23, in the assay with SF-295, in the assay with IGROV-1 and in the assay with HOP-92 was > 100 µM (inactive) each time. For the same molecule, the GI50 in the assay on SNB-19, with OVCAR-5, with SK-MEL-28, in the assay with A549 and in the assay with HCC 2998 was > 100 µM (inactive) in each case.

In the case of `Cc1[nH]c(=O)[nH]c(=O)c1/C=C/C(=O)NC(CO)C[S+]([O-])C[S+](C)[O-]` (stereo not given), the GI50 in the assay on EKVX is 16.4 µM (inactive); in the assay on NCI-H226 it was 17.5 µM (inactive); in the assay on LOX IMVI, 15.5 µM (inactive); in the assay with CCRF-CEM it was 14.6 µM (inactive); in the assay with OVCAR-8, 28.4 µM (inactive); with HCT-116 it was 19.3 µM (inactive). Also, the GI50 in the assay on CAKI-1 is 4.93 µM (inactive); with UACC-257, 21.8 µM (inactive); in the assay on NCI-H23, 10.8 µM (inactive); in the assay on SF-295, 15.6 µM (inactive); with IGROV-1, 12.6 µM (inactive); in the assay on HOP-92 it was 9.73 µM (inactive). For the same molecule, the GI50 in the assay with SNB-19 is 13.2 µM (inactive); in the assay with OVCAR-5, 135 µM (inactive); in the assay with SK-MEL-28 it was 17.8 µM (inactive); with A549 it was 24.4 µM (inactive); with HCC 2998 it was 9.62 µM (inactive).

As for `OCc1nnn2c1CCC2`, the GI50 in the assay with EKVX, in the assay on LOX IMVI, in the assay on CCRF-CEM, in the assay on OVCAR-8, with UACC-257 and in the assay on NCI-H23 was > 100 µM (inactive) in each case. Besides, the GI50 in the assay with ACHN, with SF-295, in the assay on TK-10, with IGROV-1, with HOP-92 and with OVCAR-5 was > 100 µM (inactive) each time. In addition, the GI50 with SK-MEL-28, with A549 and in the assay on HCC 2998 was > 100 µM (inactive) in each case.

On to `Oc1nc(-c2ccccc2)cc(-c2ccccc2O)n1`, for which the GI50 in the assay on EKVX is 6.71 µM (inactive); in the assay with NCI-H226 it was > 100 µM (inactive); with LOX IMVI, 51.5 µM (inactive); in the assay with CCRF-CEM, > 100 µM (inactive); in the assay with OVCAR-8, > 100 µM (inactive); in the assay on HCT-116, 83.4 µM (inactive). Also, the GI50 with CAKI-1 is 76.2 µM (inactive); in the assay with UACC-257, > 100 µM (inactive); in the assay on NCI-H23 it was > 100 µM (inactive); with ACHN, 67.6 µM (inactive); in the assay with SF-295, > 100 µM (inactive); in the assay on TK-10, > 100 µM (inactive). Further, the GI50 with IGROV-1 is > 100 µM (inactive); in the assay on HOP-92, 84.5 µM (inactive); in the assay on SNB-19 it was 58.2 µM (inactive); in the assay on OVCAR-5, 62.5 µM (inactive); in the assay on SK-MEL-28, > 100 µM (inactive); in the assay on A549, 83.4 µM (inactive). In addition, the GI50 in the assay on HCC 2998 is > 100 µM (inactive).

For `CC12CC3(C)CC(C)(C1)CC(N=[N+]=[N-])(C2)C3`, the GI50 with EKVX, with NCI-H226, with LOX IMVI, in the assay on CCRF-CEM, in the assay with OVCAR-8 and in the assay on HCT-116 was > 100 µM (inactive) each time. Further, the GI50 in the assay with CAKI-1, with UACC-257, with NCI-H23, in the assay with ACHN, in the assay with SF-295 and in the assay with TK-10 was > 100 µM (inactive) each time. Moreover, the GI50 with IGROV-1, with HOP-92, in the assay on SNB-19, with OVCAR-5, in the assay with SK-MEL-28 and with A549 was > 100 µM (inactive) throughout. In addition, the GI50 in the assay with HCC 2998 was > 100 µM (inactive).

As to `CN(C)C(=S)/N=c1\ss/c(=N\S(=O)(=O)c2ccccc2)n1-c1ccccc1`, the GI50 in the assay with EKVX was 59.6 µM (inactive); in the assay with NCI-H226, 0.458 µM (active); with LOX IMVI it was 4.06 µM (inactive); in the assay with CCRF-CEM it was 0.333 µM (active); in the assay on OVCAR-8 it was 23.7 µM (inactive); with CAKI-1 it was > 100 µM (inactive). Moreover, the GI50 in the assay with UACC-257 was 16.9 µM (inactive); with NCI-H23, 16.1 µM (inactive); in the assay with ACHN it was 24.2 µM (inactive); in the assay on SF-295 it was 20.3 µM (inactive); in the assay on TK-10, 40.1 µM (inactive); in the assay on IGROV-1, 38 µM (inactive). Further, the GI50 is 14.7 µM (inactive) with HOP-92; > 100 µM (inactive) in the assay with OVCAR-5; 63.7 µM (inactive) in the assay with SK-MEL-28; 14.1 µM (inactive) with A549; 38.8 µM (inactive) with HCC 2998.

As for `O=C1C(c2ccc(C3=[N+]([O-])c4cc([N+](=O)[O-])ccc4C3=O)cc2)=[N+]([O-])c2cc([N+](=O)[O-])ccc21`, the GI50 in the assay with EKVX, in the assay on NCI-H226, in the assay on LOX IMVI, in the assay with CCRF-CEM, in the assay on OVCAR-8 and with HCT-116 was > 10 µM (inactive) in each case. Besides, the GI50 in the assay with CAKI-1, in the assay with UACC-257, with NCI-H23, in the assay with ACHN, in the assay with SF-295 and in the assay on TK-10 was > 10 µM (inactive) each time. For the same molecule, the GI50 with IGROV-1, with HOP-92, in the assay with SNB-19, in the assay with OVCAR-5, in the assay on SK-MEL-28 and in the assay on A549 was > 10 µM (inactive) throughout. Further, in the assay with HCC 2998, the GI50 is > 10 µM (inactive).

`Cc1nc2ccccc2c(=O)n1/N=C(\N=N\c1cc(Cl)ccc1Cl)c1ccc(N(C)C)cc1`: the GI50 with EKVX was 45.3 µM (inactive); in the assay with LOX IMVI, 63.4 µM (inactive); in the assay with CCRF-CEM, 52.7 µM (inactive); in the assay on OVCAR-8 it was 40.9 µM (inactive); with HCT-116 it was 32.3 µM (inactive); in the assay on CAKI-1 it was 34 µM (inactive). Moreover, the GI50 in the assay on NCI-H23 is 34.8 µM (inactive); in the assay with ACHN, 71.8 µM (inactive); in the assay on TK-10, 88.3 µM (inactive); in the assay on IGROV-1 it was 49.9 µM (inactive); in the assay on SNB-19, 33.3 µM (inactive); in the assay on SK-MEL-28, > 100 µM (inactive). The GI50 in the assay with A549 was > 100 µM (inactive).
